Assay results published in US20130225534A1, “METHODS FOR TREATING AN INORGANIC SLURRY” (Rhodia Operations, priority 2003, published 2013).

Tested on: bacterial contamination of calcium carbonate-based slurry
Conditions: THPS solution added to calcium carbonate-based slurry; in 2 hours

Substance: tetrakis(hydroxymethyl)phosphonium sulphate [THPS]
- reduction in bacterial count: 10^4
